Results on 1 compound are retold here after US20190142954A1, “POLYMER-BONDED CA4 PHARMACEUTICAL COMPOUND AND PREPARATION METHOD THEREFOR” (priority 2016, published 2019).

SMILES strings stand for the structures.

For assay [1], the system named is C26 murine colon cancer cells. Nature of the assay: Therapeutic effect on tumor by single administration (pathological H&E analysis). The assay is classed as in vivo. The note with it: C26 tumor in Balb/C mice, tail vein injection, 50 mg CA4/kg, 72 hours. The procedure:
6 Balb/C mice (5-6 weeks old, female, body weight of approximately 20 g) were utilized, and C26 murine colon cancer cells were seeded at the right underarm at 2.0×10^6/mouse, respectively. […] The administration dosage was 50 mg CA4/kg body weight. The mice were sacrificed after 72 hours. Tumor was collected, and pathological H&E analysis was performed.

For the next assay, the system named is C26 cells. Briefly: Tumor inhibition effect of polymer-bonded CA4 pharmaceutical compound. The assay is classed as in vivo. Conditions: C26 tumor in Balb/C mice, 50.0 mg CA4/kg on day 1, 5 and 9, observation until day 17. The procedure: The administration dosage was 50.0 mg CA4/kg body weight. Tumor was measured 3 times per week and body weights of mice were recorded, and observation was not stopped until day 17.

`COc1ccc(/C=C\c2cc(OC)c(OC)c(OC)c2)cc1OP(=O)([O-])[O-].[Na+].[Na+]` [CA4P, Combretastatin A4 phosphate disodium]: in assay [1], the “tumor pathological analysis after single administration” value was “a wide range of recurrence occurred in the tumor”. Further, the tumor inhibition rate with C26 cells was found to be 24.0%.
